The target in assay [1] is T1, Heat shock factor protein 1 (Mus musculus, UniProt P38532).
T1 sequence (P38532 whole entry): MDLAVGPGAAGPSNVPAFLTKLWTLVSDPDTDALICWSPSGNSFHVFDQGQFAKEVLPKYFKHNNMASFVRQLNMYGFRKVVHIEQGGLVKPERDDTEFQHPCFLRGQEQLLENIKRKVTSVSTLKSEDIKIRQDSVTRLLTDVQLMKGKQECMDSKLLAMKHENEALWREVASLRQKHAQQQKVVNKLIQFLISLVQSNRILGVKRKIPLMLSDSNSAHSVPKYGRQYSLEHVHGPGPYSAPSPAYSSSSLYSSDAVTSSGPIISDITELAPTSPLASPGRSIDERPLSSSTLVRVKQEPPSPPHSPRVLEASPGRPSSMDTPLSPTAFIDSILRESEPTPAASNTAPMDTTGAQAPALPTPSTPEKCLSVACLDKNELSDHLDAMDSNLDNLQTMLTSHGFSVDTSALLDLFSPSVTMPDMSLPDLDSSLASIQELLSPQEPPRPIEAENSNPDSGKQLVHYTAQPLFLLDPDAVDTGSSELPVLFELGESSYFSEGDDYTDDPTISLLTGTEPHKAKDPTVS
The experiment in a line: decrease of HSF1-responsive luciferase luminescence – cell-based, NIH3T3, dose retest, confirmation (AID 2382).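 Note: NIH3T3 fibroblasts with HSF1-driven luciferase reporter stressed by proteasome inhibitor MG132; luminescence from HSF1-driven luciferase expression after 8 hours of MG132 stress.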 Format: functional.

Assay [2] is described as follows: Trypanosoma cruzi growth suppression in host cells – NIH3T3 host cells, beta-gal luminescence, confirmation (AID 2044).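 Note: intracellular parasites grown in NIH/3T3 mouse fibroblasts as host cells; luminescent beta-galactosidase reporter signal from transgenic T. cruzi replicating inside host cells; inhibitors lower the luminescence signal.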 Type of assay: functional, cell-based.
Assay [3] can be described thus: NIH3T3 cell viability loss – ATP luminescence, mouse fibroblasts, counter-screen, dose response (AID 2010).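 Note: cells exposed to compound for about 90 hours before reading.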 Format: functional, cell-based.
In assay [4] the test system is Streptococcus sp. 'group A'. The experiment in a line: Streptococcus pyogenes SK(-)GAS viability under kanamycin – luminescence, BacTiterGlo, confirmation, counter-screen for streptokinase expression inhibitor project, dose response (AID 1900). Type of assay: functional, organism-based.
Assay [5] deals with Streptococcus. The experiment in a line: GAS UMAA2166 growth inhibition – luminescence, BacTiterGlo, counter-screen for streptokinase expression inhibitor project, dose response (AID 1915).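 Note: potency for reduction of bacterial viability or growth.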 Type of assay: functional, organism-based.

Calls of active or inactive are those of the source. Cut-off read from the data, not from the text of the source: actives have a measured EC50 and inactives only a lower limit.

With `CCc1cccc(NC(=O)C2CCCN(S(=O)(=O)c3cccs3)C2)c1` (configuration not stated), in assay [1], the EC50 is > 195 µM (not active).
For the compound `O=C(Nc1cccc(S(=O)(=O)N2CCOCC2)c1)c1cn(-c2ccccc2)nc1-c1ccc(F)cc1`, the EC50 in assay [2] was 2.49 µM (active); in assay [3] it was > 60 µM (inconclusive).
The matching figures for `O=C(NCC1CCCN(Cc2ccc3nonc3c2)C1)c1cccc(C(F)(F)F)c1` (configuration not stated): 0.771 µM (active) and > 60 µM (not active).
The matching figures for `COc1ccc(-c2nc(C#N)c(NCc3cccnc3)o2)cc1OC`: 1.8 µM (active) and > 60 µM (not active).
Turning to `CCOc1cc(CNCC2CCCN2CC)cc(Cl)c1OC` (configuration not stated), the EC50 in assay [1] was 63.1 µM (active).
`CCC12CN3CC(CC)(CN(C1)C3c1ccc([N+](=O)[O-])o1)C2=O` (configuration not stated): the results for the EC50 in assay [2] and in assay [3] were 0.85 µM (active) and > 30 µM (not active), respectively.
Turning to `Cc1c(Cl)cccc1NC(=O)Nc1cnccn1`, the EC50 in assay [1] is > 195 µM (not active).
Regarding `O=[N+]([O-])c1cc(Br)c(OCc2nnc(-c3ccccc3)o2)c(Br)c1`, the EC50 in assay [2] is 1.75 µM (active); in assay [3] it was > 60 µM (not active).
`Cc1cc(Cn2ccnc2)c(C)cc1Cn1ccnc1`: the results for the EC50 in assay [2] and in assay [3] were 2.45 µM (active) and > 60 µM (not active), respectively.
For `COC(=O)CNC(c1ccccc1)c1cc(Br)ccc1NC(=O)CCN1CCOCC1` (configuration not stated), the EC50 in assay [2] was 6.7 µM (active); in assay [3], > 60 µM (not active).
Regarding `CCOC(=O)c1c(NC(C)=O)sc2c(OCCN(CC)CC)c(Br)ccc12`, the results for the EC50 in assay [2] and in assay [3] were 1.58 µM (active) and > 60 µM (not active), respectively.
Take `Cn1c(N)c(C(=O)Nc2ccc(-c3ccccc3)cc2)sc1=S`: in assay [1], the EC50 is > 195 µM (not active).
Turning to `COc1cc(OC)cc(C(=O)Nc2nc(-c3ccccc3)c(-c3ccccc3)o2)c1`, the values for the EC50 in assay [4] and in assay [5] were 0.617 µM (active) and 1.34 µM (active), respectively.
In the case of `O=C(Cc1ccccc1)Oc1ccccc1N1C(=O)CCC1=O`, the EC50 in assay [1] was > 195 µM (not active).
Take `CCOc1ccc(/C=C2\SC(=O)N(CCNC(=O)C3COc4ccccc4O3)C2=O)cc1OC` (configuration not stated): in assay [1], the EC50 is listed as > 195 µM (not active).
With `COc1ccccc1C(=O)C1CCCN(Cc2c[nH]nc2C2CCCCC2)C1` (configuration not stated), the EC50 in assay [2] was 0.604 µM (active); in assay [3], > 60 µM (not active).
The matching figures for `C=CCC(C(=O)OC)(C(=O)OC)c1ccc([N+](=O)[O-])cc1[N+](=O)[O-]`: 2.42 µM (active) and > 60 µM (not active).
For `COCCN(Cc1c[nH]nc1-c1ccc2cc(OC)ccc2c1)C(C)C` the same measures were 1.56 µM (active) and > 60 µM (not active).
As for `Cc1ccc(OCC(=O)c2cc(C)n(-c3ccccc3)c2C)c([N+](=O)[O-])n1`, the EC50 in assay [1] was 0.623 µM (active).
`Cc1ccc(C(=O)NCCc2nc3ccccc3[nH]2)cc1[N+](=O)[O-]`: the concentration for a half-maximal effect (EC50) in assay [2] was 1.03 µM (active); in assay [3], > 60 µM (inconclusive).
Turning to `CCCCOc1ccc(CSC2=NCCN2)cc1[N+](=O)[O-]`, the EC50 in assay [2] is 0.46 µM (active); in assay [3] it was > 30 µM (not active).
As to `Cc1ccc(-n2nc(C)c3cc(C(=O)O)sc32)cc1`, in assay [1], the EC50 is on record as > 195 µM (not active).
Still for that read-out and setting: as for `O=C(c1ccc(-n2cncn2)c([N+](=O)[O-])c1)N1CCN(S(=O)(=O)c2ccccc2F)CC1`, the figure is > 195 µM (not active); as for `Cc1nc2c(cc1C(=O)N/N=C/c1ccc(O)c(O)c1)c(=O)n(C)c(=O)n2C`, > 195 µM (not active); as for `C/C(=N\NC(=O)C(N)=O)c1ccc(O)cc1O`, > 195 µM (not active).
Take `O=C(N/N=C/c1ccc(-c2ccc(Br)cc2)o1)c1ccc2c(c1)OCO2`: the results for the EC50 in assay [2] and in assay [3] were 1.47 µM (active) and > 60 µM (inconclusive), respectively.
Turning to `CC(/C=N\NC(=O)c1cc(C)oc1C)=C\c1ccccc1`, the EC50 in assay [1] is recorded as > 195 µM (not active).

Values taken from ChEMBL document CHEMBL1201862, “PubChem BioAssay data set” (2004).
